According to article PMC2935281 (Acta Crystallographica Section D: Biological Crystallography, 2010):

Columns and labels:
[1] = target: LS from M. tuberculosis (MtLS); conditions: read-out: Dissociation constant Kd; cited from earlier work
[2] = target: T1, B. anthracis lumazine synthase (BaLS) (Bacillus anthracis, UniProt Q81MB5); assay: biochemical; conditions: for Mechanism: pH 7
[3] = target: T1, B. anthracis lumazine synthase (BaLS); assay: biochemical; assay type: binding; conditions: for Binding enthalpy ΔH / Free energy of binding ΔG / No. of sites n / TΔS: pH 7
C. albicans LS (CaLS) = conditions: read-out: Dissociation constant Kd; cited from earlier work

T1 sequence (Q81MB5 whole entry, looked up): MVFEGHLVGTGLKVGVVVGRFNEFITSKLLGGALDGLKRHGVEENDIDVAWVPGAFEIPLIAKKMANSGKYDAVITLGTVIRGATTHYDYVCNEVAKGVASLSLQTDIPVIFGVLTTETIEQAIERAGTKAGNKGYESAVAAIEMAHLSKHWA

Compound	Kd [1] [nM]	Ki [2] [nM]	Mechanism [2]	Ks ([2]; pH 7.0) [µM]	kcat ([2]; pH 7.0) [s⁻¹]	Kd [3] [nM]	Binding enthalpy ΔH [3] [kcal/mol]	Free energy of binding ΔG [3] [kcal/mol]	No. of sites n [3]	TΔS [3] [kcal/mol]	Kd (C. albicans LS (CaLS)) [nM]	increase of the Ki value in comparison to JC33 [2]	Kis ([2]; pH 7.0) [µM]	k′cat ([2]; pH 7.0) [min⁻¹]
O=c1[nH]c(Cl)c(CCCCOP(=O)(O)O)c(=O)[nH]1 [JC33, 4-(6-Chloro-2,4-dioxo-1,2,3,4-tetrahydropyrimidine-5-yl)-n-butyl 1-phosphate]	720 ± 20	23	Competitive	8.0 ± 0.5	0.01 ± 0.00017	1750 ± 40	-7.50 ± 0.07	-7.98 ± 0.02	0.98 ± 0.04	0.47 ± 0.07	150 ± 40			
O=c1[nH]c(Cl)c(CCCCCP(=O)(O)O)c(=O)[nH]1 [JC72, 5-(6-chloro-2,4-dioxo-1,2,3,4-tetrahydropyrimidine-5-yl)-n-pentyl 1-phosphonate]		430	Partial	8.5 ± 0.5	0.01 ± 0.00017	3940 ± 10	-5.29 ± 0.8	-7.49 ± 0.01	0.98 ± 0.12	2.20 ± 0.79		approximately 20 fold	9.5 ± 3.5	0.28 ± 0.09
